Test results from patent publication US8753648B2 (priority 2002, dated 2014).

Assays:
RK44.20 cells = conditions: rabbit
CV-1 cells = conditions: African green monkey
cowpox virus [1] = conditions: mouse, in vivo; cited from earlier work
cowpox virus [2] = conditions: mouse, in vivo; cited from earlier work; remark: listed apart in the source

| SMILES | AZT concentration with toxic effect on cells (RK44.20 cells) | AZT concentration with toxic effect on cells (CV-1 cells) | effect on death (cowpox virus [1]) | effect on mortality (cowpox virus [2]) |
| --- | --- | --- | --- | --- |
| Cc1cn([C@H]2C[C@H](N=[N+]=[N-])[C@@H](CO)O2)c(=O)[nH]c1=O [AZT, 3′-azido-2′,3′-dideoxythymidine] | > 1.5 mg/mL | > 1.5 mg/mL | – | – |
| Nc1ccn(C[C@@H](CO)OCP(=O)(O)O)c(=O)n1 [Cidofovir] | – | – | only delayed but did not prevent death | reduce mortality |
